Measured values: patent publication US20250382305A1 (PTC THERAPEUTICS, INC., priority 2022, published 2025)

Columns and labels:
[1] = test system: Total ATXN3 (tATXN3) protein; assay: Endogenous Total ATXN3 (tATXN3) Protein Assay (MSD immunoassay of cell lysates); assay type: cell-based; details: average IC50, total ATXN3 protein in cell lysate after 48 h with compound (Table 1)
Procedure, shortened: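 By electrochemiluminescent MSD sandwich immunoassay (mouse monoclonal capture, rabbit monoclonal and SULFO-TAG anti-rabbit detection), endogenous ATXN3 was quantified in lysates of cells treated 48 h at 37° C at 10,000 cells/well. Treatment used a 7-point 3.16-fold duplicate dilution series, with average IC50 grouped into star categories.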

[2] = test system: ATXN3 pre-mRNA; assay: RT-qPCR Assay to Quantify Exon 4 Skipping in ATXN3 pre-mRNA in Cells; assay type: cell-based; details: percent exon 4 skipping in ATXN3 pre-mRNA, RT-qPCR of cell lysates; average IC50
Procedure, shortened: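 IC50 derives from a dose-response fit of percent exon 4 skipping, quantified by RT-qPCR on crude lysates. Compounds tested as 7-point 3.16-fold dilutions in duplicate; cells (10,000/well) were exposed for 24 h at 37 °C before lysis.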

Compound	IC50 [1] [nM]	IC50 [2] [nM]
N[C@H]1CCCCCC[C@@H]1c1sc2c(NCc3cccs3)cc(Cl)nc2c1Br [Compound 99, 2-((1S,2S)-2-aminocyclooctyl)-3-bromo-5-chloro-N-(thiophen-2-ylmethyl)thieno[3,2-b]pyridin-7-amine]	30 to 300	30 to 300
N[C@@H]1CCC[C@H]1c1sc2c(NCc3ccco3)cc(Cl)nc2c1Cl [Compound 114, 2-((1R,2R)-2-aminocyclopentyl)-3,5-dichloro-N-(furan-2-ylmethyl)thieno[3,2-b]pyridin-7-amine]	> 1000	> 1000
N[C@H]1CCC[C@]1(F)c1sc2c(NCc3ccco3)cc(Cl)nc2c1Cl [Compound 121, 2-((1R,2S)-2-amino-1-fluorocyclopentyl)-3,5-dichloro-N-(furan-2-ylmethyl)thieno[3,2-b]pyridin-7-amine]	> 1000	> 1000
N[C@H]1CCCO[C@@H]1c1sc2c(NCc3ccco3)cc(Cl)nc2c1Cl [Compound 116, 2-((2S,3S)-3-aminotetrahydro-2H-pyran-2-yl)-3,5-dichloro-N-(furan-2-ylmethyl)thieno[3,2-b]pyridin-7-amine]	≤ 30	≤ 30
N[C@@H]1CCCO[C@H]1c1c(I)c2nc(Cl)nc(NCc3cccs3)c2n1C(F)F [Compound 416, 6-((2R,3R)-3-aminotetrahydro-2H-pyran-2-yl)-2-chloro-5-(difluoromethyl)-7-iodo-N-(thiophen-2-ylmethyl)-5H-pyrrolo[3,2-d]pyrimidin-4-amine]	30 to 300	30 to 300
CC#CCNc1nc(Cl)nc2c(I)c([C@H]3CC=CC[C@@H]3N)sc12 [Compound 219, 6-((1S,6S)-6-aminocyclohex-3-en-1-yl)-N-(but-2-yn-1-yl)-2-chloro-7-iodothieno[3,2-d]pyrimidin-4-amine]	≤ 30	≤ 30
N[C@H]1CC=CC[C@@H]1c1sc2c(NCc3ccncc3F)nc(Cl)nc2c1Cl [Compound 236, 6-((1S,6S)-6-aminocyclohex-3-en-1-yl)-2,7-dichloro-N-((3-fluoropyridin-4-yl)methyl)thieno[3,2-d]pyrimidin-4-amine]	≤ 30	≤ 30
C=Cc1c([C@H]2CC=CC[C@@H]2N)sc2c(NCc3cccs3)cc(Cl)nc12 [Compound 267, 2-((1S,6S)-6-aminocyclohex-3-en-1-yl)-5-chloro-N-(thiophen-2-ylmethyl)-3-vinylthieno[3,2-b]pyridin-7-amine]	30 to 300	30 to 300
N[C@@H]1CCCC[C@H]1c1sc2c(NCc3cccs3)cc(Cl)nc2c1-c1ccccc1 [Compound 138]	30 to 300	300 to 1000
N[C@@H]1CCC[C@H]1c1sc2c(NCc3cccs3)cc(Cl)nc2c1Br [Compound 7, 2-((1R,2R)-2-aminocyclopentyl)-3-bromo-5-chloro-N-(thiophen-2-ylmethyl)thieno[3,2-b]pyridin-7-amine]	300 to 1000	300 to 1000
C/C=C\CNc1cc(Cl)nc2c(Cl)c([C@H]3CCCC[C@@H]3N)sc12 [Compound 442, 2-((1S,2S)-2-aminocyclohexyl)-N-((Z)-but-2-en-1-yl)-3,5-dichlorothieno[3,2-b]pyridin-7-amine]	30 to 300	30 to 300
N[C@@H]1CCC[C@H]1c1sc2c(NCc3cccs3)cc(Cl)nc2c1I [Compound 154, 2-((1R,2R)-2-aminocyclopentyl)-5-chloro-3-iodo-N-(thiophen-2-ylmethyl)thieno[3,2-b]pyridin-7-amine]	> 1000	> 1000
N[C@@H]1CC=CC[C@H]1c1sc2c(NCc3ccncc3F)cc(Cl)nc2c1Cl [Compound 376, 2-((1R,6R)-6-aminocyclohex-3-en-1-yl)-3,5-dichloro-N-((3-fluoropyridin-4-yl)methyl)thieno[3,2-b]pyridin-7-amine]	30 to 300	30 to 300
2-((1R,2R)-2-aminocyclohexyl)-5-chloro-3-(prop-1-yn-1-yl)-N-(thiophen-2-ylmethyl)thieno[3,2-b]pyridin-7-amine and 2-((1S,2S)-2-aminocyclohexyl)-5-chloro-3-(prop-1-yn-1-yl)-N-(thiophen-2-ylmethyl)thieno[3,2-b]pyridin-7-amine [Compound 189]	≤ 30	≤ 30
Cc1c([C@H]2CC=CC[C@@H]2N)sc2c(NCc3ccccc3)cc(Cl)nc12 [Compound 258, 2-((1S,6S)-6-aminocyclohex-3-en-1-yl)-N-benzyl-5-chloro-3-methylthieno[3,2-b]pyridin-7-amine]	30 to 300	≤ 30
Cc1c([C@@]2(F)CCCC[C@@H]2N)sc2c(NCc3ccco3)cc(Cl)nc12 [Compound 41, 2-((1R,2S)-2-amino-1-fluorocyclohexyl)-5-chloro-N-(furan-2-ylmethyl)-3-methylthieno[3,2-b]pyridin-7-amine]	30 to 300	30 to 300
CCc1c([C@@H]2CCCCCC[C@H]2N)sc2c(NCc3cccs3)cc(Cl)nc12 [Compound 158, 2-((1R,2R)-2-aminocyclooctyl)-5-chloro-3-ethyl-N-(thiophen-2-ylmethyl)thieno[3,2-b]pyridin-7-amine]	> 1000	> 1000
[2H]C1=C([2H])C([2H])([2H])[C@H](c2sc3c(NCc4ccccc4)cc(Cl)nc3c2C)[C@@H](N)C1([2H])[2H] [Compound 292, 2-((1S,6S)-6-aminocyclohex-3-en-1-yl-2,2,3,4,5,5-d6)-N-benzyl-5-chloro-3-methylthieno[3,2-b]pyridin-7-amine]	30 to 300	30 to 300
N[C@@H]1COCC[C@H]1c1sc2c(NCc3nccs3)cc(Cl)nc2c1I [Compound 408, 2-((3S,4R)-3-aminotetrahydro-2H-pyran-4-yl)-5-chloro-3-iodo-N-(thiazol-2-ylmethyl)thieno[3,2-b]pyridin-7-amine]	30 to 300	30 to 300
2-((2R,3R)-3-aminotetrahydro-2H-pyran-2-yl)-5-chloro-3-iodo-N-(thiophen-2-ylmethyl)thieno[3,2-b]pyridin-7-amine and 2-((2S,3S)-3-aminotetrahydro-2H-pyran-2-yl)-5-chloro-3-iodo-N-(thiophen-2-ylmethyl)thieno[3,2-b]pyridin-7-amine [Compound 266]	30 to 300	30 to 300
6-((1R,2R)-2-aminocyclohexyl)-N-benzyl-2-chloro-7-methylthieno[3,2-d]pyrimidin-4-amine or 6-((1S,2S)-2-aminocyclohexyl)-N-benzyl-2-chloro-7-methylthieno[3,2-d]pyrimidin-4-amine [Compound 43]	> 1000	> 1000
N[C@H]1CC=CC[C@@H]1c1c(I)c2nc(Cl)cc(NCc3cccs3)c2n1C(F)F [Compound 325, 2-((1S,6S)-6-aminocyclohex-3-en-1-yl)-5-chloro-1-(difluoromethyl)-3-iodo-N-(thiophen-2-ylmethyl)-1H-pyrrolo[3,2-b]pyridin-7-amine]	30 to 300	30 to 300
2-((1R,6S)-6-amino-2,2-difluorocyclohexyl)-3-bromo-N-(but-2-yn-1-yl)-5-chlorothieno[3,2-b]pyridin-7-amine and 2-((1S,6R)-6-amino-2,2-difluorocyclohexyl)-3-bromo-N-(but-2-yn-1-yl)-5-chlorothieno[3,2-b]pyridin-7-amine [Compound 370]	30 to 300	30 to 300
N[C@H]1CCCO[C@@H]1c1c(I)c2nc(Cl)nc(NCc3cccs3)c2n1C(F)F [Compound 254, 6-((2S,3S)-3-aminotetrahydro-2H-pyran-2-yl)-2-chloro-5-(difluoromethyl)-7-iodo-N-(thiophen-2-ylmethyl)-5H-pyrrolo[3,2-d]pyrimidin-4-amine]	30 to 300	30 to 300
N[C@H]1CCCCC[C@H]1c1cc2nc(Cl)cc(NCc3cccs3)c2s1 [Compound 89, 2-((1R,2S)-2-aminocycloheptyl)-5-chloro-N-(thiophen-2-ylmethyl)thieno[3,2-b]pyridin-7-amine]	> 1000	> 1000
N[C@@H]1CCC[C@H]1c1sc2c(NCc3cccs3)cc(Cl)nc2c1Cl [Compound 2, 2-((1R,2R)-2-aminocyclopentyl)-3,5-dichloro-N-(thiophen-2-ylmethyl)thieno[3,2-b]pyridin-7-amine]	> 1000	> 1000
6-((1R,6R)-6-aminocyclohex-3-en-1-yl-2,2,3,4,5,5-d6)-7-bromo-2-chloro-N-(thiophen-2-ylmethyl)thieno[3,2-d]pyrimidin-4-amine [Compound 372]	30 to 300	30 to 300
N[C@@H]1CCCO[C@H]1c1sc2c(NCc3cccs3)cc(Cl)nc2c1C#CCCO.N[C@H]1CCCO[C@@H]1c1sc2c(NCc3cccs3)cc(Cl)nc2c1C#CCCO (mixture of isomers) [Compound 213, 4-(2-((2R,3R)-3-aminotetrahydro-2H-pyran-2-yl)-5-chloro-7-((thiophen-2-ylmethyl)amino)thieno[3,2-b]pyridin-3-yl)but-3-yn-1-ol and 4-(2-((2S,3S)-3-aminotetrahydro-2H-pyran-2-yl)-5-chloro-7-((thiophen-2-ylmethyl)amino)thieno[3,2-b]pyridin-3-yl)but-3-yn-1-ol]	≤ 30	≤ 30
5-(2-chloro-6-((1R,6R)-6-(methylamino)cyclohex-3-en-1-yl)-4-((thiophen-2-ylmethyl)amino)thieno[3,2-d]pyrimidin-7-yl)pent-4-yn-1-ol and 5-(2-chloro-6-((1S,6S)-6-(methylamino)cyclohex-3-en-1-yl)-4-((thiophen-2-ylmethyl)amino)thieno[3,2-d]pyrimidin-7-yl)pent-4-yn-1-ol [Compound 293]	30 to 300	30 to 300
